molecular target: interaction between p53 and MDM2 proteins (Homo sapiens, UniProt Q00987); test: HTRF assay of inhibition of p53-MDM2 interaction; assay type: binding; conditions: GST-MDM2 and biotinylated p53 peptide, bsa: 0.02%
Description: The ability of the compounds to inhibit the interaction between p53 and MDM2 proteins was measured by an HTRF (homogeneous time-resolved fluorescence) assay in which recombinant GST-tagged MDM2 binds to a peptide that resembles the MDM2-interacting region of p53. Binding of GST-MDM2 protein and p53-peptide (biotinylated on its N-terminal end) is registered by the FRET (fluorescence resonance energy transfer) between Europium (Eu)-labeled anti-GST antibody and streptavidin-conjugated Allophycocyanin (APC).
Add 20 uL streptavidin-APC and Eu-anti-GST antibody mixture (6 nM Eu-anti-GST and 60 nM streptavidin-APC working solution) in TBS buffer with 0.2% BSA, shake at room temperature for 30 minutes and read using a TRF-capable plate reader at
If not specified, the reagents were purchased from Sigma Chemical Co.

Chain of interaction between p53 and MDM2 proteins (Q00987 whole entry): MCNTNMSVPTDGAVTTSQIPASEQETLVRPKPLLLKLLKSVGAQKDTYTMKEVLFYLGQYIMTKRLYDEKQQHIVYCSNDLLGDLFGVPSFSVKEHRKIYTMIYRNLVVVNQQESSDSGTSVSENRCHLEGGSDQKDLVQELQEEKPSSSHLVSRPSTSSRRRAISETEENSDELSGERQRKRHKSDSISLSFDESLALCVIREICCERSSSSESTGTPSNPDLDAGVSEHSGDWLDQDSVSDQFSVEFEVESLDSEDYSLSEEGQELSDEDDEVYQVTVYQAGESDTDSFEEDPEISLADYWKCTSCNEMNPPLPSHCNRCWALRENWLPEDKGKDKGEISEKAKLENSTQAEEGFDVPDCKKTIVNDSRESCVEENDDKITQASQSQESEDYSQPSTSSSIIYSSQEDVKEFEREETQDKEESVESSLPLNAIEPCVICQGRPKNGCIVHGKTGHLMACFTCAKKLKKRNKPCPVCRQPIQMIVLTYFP

| SMILES | IC50 [nM] |
| --- | --- |
| COc1cc(C(N)=O)ccc1NC(=O)[C@@H]1N[C@@H](CC(C)(C)C)[C@@]2(C(=O)Nc3cc(C)ncc32)[C@H]1c1cccc(Cl)c1F (racemic) [Example 121, rac-(2S,3R,4S,5R)-N-(4-carbamoyl-2-methoxyphenyl)-4-(3-chloro-2-fluorophenyl)-6′-methyl-2-neopentyl-2′-oxo-1′,2′-dihydrospiro[pyrrolidine-3,3′-pyrrolo[3,2-c]pyridine]-5-carboxamide] | 11.8 |
| CC(C)(C)C[C@@H]1N[C@@H](C(=O)Nc2ccc(C(=O)O)cc2)[C@H](c2cccc(Cl)c2F)[C@]12C(=O)Nc1cc(Cl)ncc12 (racemic) [Example 28, rac-4-((2S,3R,4S,5R)-6′-chloro-4-(3-chloro-2-fluorophenyl)-2-neopentyl-2′-oxo-1′,2′-dihydrospiro[pyrrolidine-3,3′-pyrrolo[3,2-c]pyridine]-5-ylcarboxamido)benzoic acid] | 10.5 |
| COc1cc(C(N)=O)ccc1NC(=O)[C@@H]1N[C@@H](CC(C)(C)C)[C@@]2(C(=O)Nc3cc(Cl)cnc32)[C@H]1c1cccc(Br)c1F (racemic) [Example 69, rac-(2S,3S,4S,5R)-4-(3-bromo-2-fluorophenyl)-N-(4-carbamoyl-2-methoxyphenyl)-6′-chloro-2-neopentyl-2′-oxo-1′,2′-dihydrospiro[pyrrolidine-3,3′-pyrrolo[3,2b]pyridine]-5-carboxamide] | 12.9 |
| COC(=O)c1ccc(NC(=O)[C@@H]2N[C@@H](CC(C)(C)C)[C@@]3(C(=O)Nc4c(Cl)ccnc43)[C@H]2c2cccc(Cl)c2F)c(OC)c1 (racemic) [Example 123, methyl rac-4-((2S,3S,4S,5R)-7′-chloro-4-(3-chloro-2-fluorophenyl)-2-neopentyl-2′-oxo-1′,2′-dihydrospiro[pyrrolidine-3,3′-pyrrolo[3,2-b]pyridine]-5-ylcarboxamido)-3-methoxybenzoate] | 6250 |
| COc1cc(OCCO)ccc1NC(=O)[C@@H]1N[C@@H](CC(C)(C)C)[C@@]2(C(=O)Nc3nc(Cl)ncc32)[C@H]1c1cccc(Cl)c1F (racemic) [Example 89, rac-(2S,3R,4S,5R)-2′-chloro-4-(3-chloro-2-fluorophenyl)-N-[4-(2-hydroxyethoxy)-2-methoxyphenyl]-2-neopentyl-6′-oxo-6′,7′-dihydrospiro[pyrrolidine-3,5′-pyrrolo[2,3-d]pyrimidine]-5-carboxamide] | 11.7 |
| COC(=O)c1ccc(NC(=O)[C@@H]2N[C@@H](CC(C)(C)C)[C@@]3(C(=O)Nc4cc(Cl)sc43)[C@H]2c2cccc(Cl)c2F)c(OC)c1 (racemic) [Example 96, methyl rac-4-((2S,3R,4R,5R)-2′-chloro-4-(3-chloro-2-fluorophenyl)-2-neopentyl-5′-oxo-4′,5′-dihydrospiro[pyrrolidine-3,6′-thieno[3,2-b]pyrrole]-5-ylcarboxamido)-3-methoxybenzoate] | 22.7 |
